Experimental data taken from patent publication US8729089B2 (Gilead Sciences, Inc., priority 2006, dated 2014).

Experiments:
[1] = CC50 assay (CellTiter-Glo) in Huh-7 HCV replicon cells; format: cell-based, human; conditions: human, 3 days incubation, CellTiter-Glo readout
How it was run: (§1)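 Huh-7 cells carrying an HCV replicon (6000/well) exposed to 3-fold serial compound dilutions for 3 days at 37 °C, final DMSO 0.5% where used. EC50 read as replicon luciferase luminescence after cell lysis; CC50 from CellTiter-Glo luminescence after 10 min at room temperature.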

[2] = tested on: HCV replicon in human hepatoma Huh-7 cell line; assay: Anti-HCV replicon assay (EC50, luciferase); format: cell-based; conditions: Hepatitis C virus, Huh-7, 72 h
How it was run: as §1

## NS(=O)(=O)c1ccc(CNc2nc(NCC(F)(F)F)c3nc(-c4ccc(Cl)cc4)ccc3n2)cc1 [Example 192, 4-{[6-(4-Chloro-phenyl)-4-(2,2,2-trifluoro-ethylamino)-pyrido[3,2-d]pyrimidin-2-ylamino]-methyl}-benzenesulfonamide]
[1]
  CC50 at 3 days: 5 to 25 µM
[2]
  EC50: < 0.1 µM

## CC(C)N1CCC(NS(=O)(=O)c2cc(-c3ccc4nc(NCc5ccc(S(N)(=O)=O)cc5)nc(NCC(F)(F)F)c4n3)ccc2Cl)CC1 [Example 193, 2-Chloro-N-(1-isopropyl-piperidin-4-yl)-5-[2-(4-sulfamoyl-benzylamino)-4-(2,2,2-trifluoro-ethylamino)-pyrido[3,2-d]pyrimidin-6-yl]-benzenesulfonamide]
[1]
  CC50 at 3 days: < 5 µM
[2]
  EC50: < 0.1 µM

## CC(C)(C)OC(=O)NC1CCN(S(=O)(=O)c2cc(-c3ccc4nc(NCc5ccc(S(N)(=O)=O)cc5)nc(NCC(F)(F)F)c4n3)ccc2Cl)CC1 [Example 194, (1-{2-Chloro-5-[2-(4-sulfamoyl-benzylamino)-4-(2,2,2-trifluoro-ethylamino)-pyrido[3,2-d]pyrimidin-6-yl]-benzenesulfonyl}-piperidin-4-yl)-carbamic acid tert-butyl ester]
[1]
  CC50 at 3 days: < 5 µM
[2]
  EC50: < 0.1 µM

## NS(=O)(=O)c1ccc(CNc2nc(NCC(F)(F)F)c3nc(-c4ccc(Cl)c(S(=O)(=O)NCCN5CCCC5)c4)ccc3n2)cc1 [Example 195, 2-Chloro-N-(2-pyrrolidin-1-yl-ethyl)-5-[2-(4-sulfamoyl-benzylamino)-4-(2,2,2-trifluoro-ethylamino)-pyrido[3,2-d]pyrimidin-6-yl]-benzenesulfonamide]
[1]
  CC50 at 3 days: < 5 µM
[2]
  EC50: < 0.1 µM

## CC(C)N1CCN(S(=O)(=O)c2cc(-c3ccc4nc(NCc5ccc(S(N)(=O)=O)cc5)nc(NCC(F)(F)F)c4n3)ccc2Cl)CC1 [Example 196, 4-{[6-[4-Chloro-3-(4-isopropyl-piperazine-1-sulfonyl)-phenyl]-4-(2,2,2-trifluoro-ethylamino)-pyrido[3,2-d]pyrimidin-2-ylamino]-methyl}-benzenesulfonamide]
[1]
  CC50 at 3 days: < 5 µM
[2]
  EC50: < 0.1 µM

## NS(=O)(=O)c1ccc(CNc2nc(NCC(F)(F)F)c3nc(-c4ccc(Cl)c(S(=O)(=O)N[C@@H]5CCNC5)c4)ccc3n2)cc1 [Example 197, 2-Chloro-N-pyrrolidin-3-yl-5-[2-(4-sulfamoyl-benzylamino)-4-(2,2,2-trifluoro-ethylamino)-pyrido[3,2-d]pyrimidin-6-yl]-benzenesulfonamide]
[1]
  CC50 at 3 days: < 5 µM
[2]
  EC50: < 0.1 µM

## COCCNS(=O)(=O)c1cc(-c2ccc3nc(NCc4ccc(S(N)(=O)=O)cc4)nc(NCC(F)(F)F)c3n2)ccc1Cl [Example 198, 2-Chloro-N-(2-methoxy-ethyl)-5-[2-(4-sulfamoyl-benzylamino)-4-(2,2,2-trifluoro-ethylamino)-pyrido[3,2-d]pyrimidin-6-yl]-benzenesulfonamide]
[1]
  CC50 at 3 days: 5 to 25 µM
[2]
  EC50: < 0.1 µM

## CC(C)(CN1CCCC1)NC(=O)c1ccc(-c2ccc3nc(NCc4ccc(S(N)(=O)=O)cc4)nc(NCC(F)(F)F)c3n2)cc1 [Example 199, N-(1,1-Dimethyl-2-pyrrolidin-1-yl-ethyl)-4-[2-(4-sulfamoyl-benzylamino)-4-(2,2,2-trifluoro-ethylamino)-pyrido[3,2-d]pyrimidin-6-yl]-benzamide]
[1]
  CC50 at 3 days: < 5 µM
[2]
  EC50: < 0.1 µM

## NS(=O)(=O)c1ccc(CNc2nc(NCC(F)(F)F)c3nc(-c4ccc(Cl)c(S(=O)(=O)NC5CCNCC5)c4)ccc3n2)cc1 [Example 200, 2-Chloro-N-piperidin-4-yl-5-[2-(4-sulfamoyl-benzylamino)-4-(2,2,2-trifluoro-ethylamino)-pyrido[3,2-d]pyrimidin-6-yl]-benzenesulfonamide]
[1]
  CC50 at 3 days: < 5 µM
[2]
  EC50: < 0.1 µM

## CC(C)(C)OC(=O)N1CCC(NS(=O)(=O)c2cc(-c3ccc4nc(NCc5ccc(S(N)(=O)=O)cc5)nc(NCC(F)(F)F)c4n3)ccc2Cl)CC1 [Example 201, 4-{2-Chloro-5-[2-(4-sulfamoyl-benzylamino)-4-(2,2,2-trifluoro-ethylamino)-pyrido[3,2-d]pyrimidin-6-yl]-benzenesulfonylamino}-piperidine-1-carboxylic acid tert-butyl ester]
[1]
  CC50 at 3 days: 5 to 25 µM
[2]
  EC50: < 0.1 µM

## NS(=O)(=O)c1ccc(CNc2nc(NCC(F)(F)F)c3nc(-c4ccc(Cl)c(S(N)(=O)=O)c4)ccc3n2)cc1 [Example 202, 2-Chloro-5-[2-(4-sulfamoyl-benzylamino)-4-(2,2,2-trifluoro-ethylamino)-pyrido[3,2-d]pyrimidin-6-yl]-benzenesulfonamide]
[1]
  CC50 at 3 days: < 5 µM
[2]
  EC50: < 0.1 µM

## NS(=O)(=O)c1ccc(CNc2nc(NCC(F)(F)F)c3nc(-c4ccnnc4)ccc3n2)cc1 [Example 203, 4-{[6-Pyridazin-4-yl-4-(2,2,2-trifluoro-ethylamino)-pyrido[3,2-d]pyrimidin-2-ylamino]-methyl}-benzenesulfonamide]
[1]
  CC50 at 3 days: > 25 µM
[2]
  EC50: < 0.1 µM

## CC(C)N1CCN(S(=O)(=O)c2cc(-c3ccc4nc(NCc5ccc(S(N)(=O)=O)cc5)nc(NCC(F)(F)F)c4n3)ccc2F)CC1 [Example 204, 4-{[6-[4-Fluoro-3-(4-isopropyl-piperazine-1-sulfonyl)-phenyl]-4-(2,2,2-trifluoro-ethylamino)-pyrido[3,2-d]pyrimidin-2-ylamino]-methyl}-benzenesulfonamide]
[1]
  CC50 at 3 days: < 5 µM
[2]
  EC50: < 0.1 µM

## CC(C)(C)OC(=O)N1CC[C@@H](NS(=O)(=O)c2cc(-c3ccc4nc(NCc5ccc(S(N)(=O)=O)cc5)nc(NCC(F)(F)F)c4n3)ccc2F)C1 [Example 205, 3-{2-Fluoro-5-[2-(4-sulfamoyl-benzylamino)-4-(2,2,2-trifluoro-ethylamino)-pyrido[3,2-d]pyrimidin-6-yl]-benzenesulfonylamino}-pyrrolidine-1-carboxylic acid tert-butyl ester]
[1]
  CC50 at 3 days: < 5 µM
[2]
  EC50: < 0.1 µM

## CN(CC(F)(F)F)c1nc(NCc2ccc(S(N)(=O)=O)cc2)nc2ccc(-c3ccc(F)cc3)nc12 [Example 206, 4-({6-(4-Fluoro-phenyl)-4-[methyl-(2,2,2-trifluoro-ethyl)-amino]-pyrido[3,2-d]pyrimidin-2-ylamino}-methyl)-benzenesulfonamide]
[1]
  CC50 at 3 days: < 5 µM
[2]
  EC50: < 0.1 µM

## C[C@H](N)C(=O)Nc1ccc(-c2ccc3nc(NCc4ccc(S(N)(=O)=O)cc4)nc(NCC(F)(F)F)c3n2)cc1Cl [Example 207, 2-Amino-N-{2-chloro-4-[2-(4-sulfamoyl-benzylamino)-4-(2,2,2-trifluoro-ethylamino)-pyrido[3,2-d]pyrimidin-6-yl]-phenyl}-propionamide]
[1]
  CC50 at 3 days: < 5 µM
[2]
  EC50: < 0.1 µM

## C[C@H](O)C(=O)Nc1ccc(-c2ccc3nc(NCc4ccc(S(N)(=O)=O)cc4)nc(NCC(F)(F)F)c3n2)cc1Cl [Example 208, N-{2-Chloro-4-[2-(4-sulfamoyl-benzylamino)-4-(2,2,2-trifluoro-ethylamino)-pyrido[3,2-d]pyrimidin-6-yl]-phenyl}-2-hydroxy-propionamide]
[1]
  CC50 at 3 days: 5 to 25 µM
[2]
  EC50: < 0.1 µM

## C[C@H](O)C(=O)Nc1ccc(-c2ccc3nc(NCc4ccc(S(N)(=O)=O)cc4)nc(NCC(F)(F)F)c3n2)cc1F [Example 209, N-{2-Fluoro-4-[2-(4-sulfamoyl-benzylamino)-4-(2,2,2-trifluoro-ethylamino)-pyrido[3,2-d]pyrimidin-6-yl]-phenyl}-2-hydroxy-propionamide]
[1]
  CC50 at 3 days: < 5 µM
[2]
  EC50: < 0.1 µM

## C[C@H](O)C(=O)Nc1ccc(-c2ccc3nc(NCc4ccc(S(N)(=O)=O)cc4)nc(NCC(F)(F)F)c3n2)cc1 [Example 210, 2-Hydroxy-N-{4-[2-(4-sulfamoyl-benzylamino)-4-(2,2,2-trifluoro-ethylamino)-pyrido[3,2-d]pyrimidin-6-yl]-phenyl}-propionamide]
[1]
  CC50 at 3 days: > 25 µM
[2]
  EC50: < 0.1 µM

## COC(=O)Nc1ccc(-c2ccc3nc(NCc4ccc(S(N)(=O)=O)cc4)nc(NCC(F)(F)F)c3n2)cc1 [Example 211, {4-[2-(4-Sulfamoyl-benzylamino)-4-(2,2,2-trifluoro-ethylamino)-pyrido[3,2-d]pyrimidin-6-yl]-phenyl}-carbamic acid methyl ester]
[1]
  CC50 at 3 days: 5 to 25 µM
[2]
  EC50: < 0.1 µM

## N#Cc1ccc(-c2ccc3nc(NCc4ccc(S(N)(=O)=O)cc4)nc(NCC(F)(F)F)c3n2)cc1 [Example 212, 4-{[6-(4-Cyano-phenyl)-4-(2,2,2-trifluoro-ethylamino)-pyrido[3,2-d]pyrimidin-2-ylamino]-methyl}-benzenesulfonamide]
[1]
  CC50 at 3 days: 5 to 25 µM
[2]
  EC50: < 0.1 µM

## NS(=O)(=O)c1ccc(CNc2nc(NCC(F)(F)F)c3nc(-c4ccc(F)c(S(=O)(=O)N[C@@H]5CCNC5)c4)ccc3n2)cc1 [Example 213, 2-Fluoro-N-pyrrolidin-3-yl-5-[2-(4-sulfamoyl-benzylamino)-4-(2,2,2-trifluoro-ethylamino)-pyrido[3,2-d]pyrimidin-6-yl]-benzenesulfonamide]
[1]
  CC50 at 3 days: < 5 µM
[2]
  EC50: < 0.1 µM

## NS(=O)(=O)c1ccc(CNc2nc(NCC(F)(F)F)c3nc(-c4ccc(F)c(S(=O)(=O)NC5CCNCC5)c4)ccc3n2)cc1 [Example 214, 2-Fluoro-N-piperidin-4-yl-5-[2-(4-sulfamoyl-benzylamino)-4-(2,2,2-trifluoro-ethylamino)-pyrido[3,2-d]pyrimidin-6-yl]-benzenesulfonamide]
[1]
  CC50 at 3 days: 5 to 25 µM
[2]
  EC50: < 0.1 µM

## CC(C)(C)OC(=O)N1CCC(NS(=O)(=O)c2cc(-c3ccc4nc(NCc5ccc(S(N)(=O)=O)cc5)nc(NCC(F)(F)F)c4n3)ccc2F)CC1 [Example 215, 4-{2-Fluoro-5-[2-(4-sulfamoyl-benzylamino)-4-(2,2,2-trifluoro-ethylamino)-pyrido[3,2-d]pyrimidin-6-yl]-benzenesulfonylamino}-piperidine-1-carboxylic acid tert-butyl ester]
[1]
  CC50 at 3 days: 5 to 25 µM
[2]
  EC50: < 0.1 µM
